Measurements: publication PMC5869712 (Scientific Reports, 2018)

Key:
[1] = target: T1, Flt3 (Homo sapiens, UniProt P36888); test: Eurofins Kinase Profiler panel; type: biochemical; conditions: read-out: % inhibition (1μM), DMSO control=100%, lower=stronger
T1 construct: purchased Eurofins Pharma Discovery Services UK Limited (Kinase Profiler screening platform)

[2] = target: T2, GRK5 (Homo sapiens, UniProt P34947); test: Eurofins Kinase Profiler panel; type: biochemical; conditions: read-out: % inhibition (1μM), DMSO control=100%, lower=stronger
T2 construct: purchased Eurofins KinaseProfiler (Eurofins Pharma Discovery Services UK, Dundee); JAK3 also ChemPartner

[3] = system: DBA/1 mice with collagen-induced arthritis; test: Collagen-induced arthritis mouse model: clinical score, histology, safety; type: in vivo; conditions: CIA mice; for group mean histological severity score: model group 3.8, grades 0-4
Description: The animal protocol was approved by the Animal Care and Use Committee of Sichuan University in China (IACUC number: 20100318). DBA/1 J mice (male, 6 weeks old) were obtained from Jackson Laboratory (Bar Harbor, ME). One day before the start of the experiment, CII solution (2 mg/ml) was prepared with 0.05 M acetic acid and stored at 4 °C. Just before the immunization, equal volumes of IFA and CII were mixed by a homogenizer in a precooled glass bottle in an ice water bath. Arthritis was induced in 8-week old male DBA/1 mice by immunizations with a 1:1 emulsion of bovine type II collagen (Chondrex) and Freund’s complete adjuvant (Sigma-Aldrich) on day 0 and with a 1:1 emulsion of bovine type II collagen in Freund’s incomplete adjuvant (Sigma-Aldrich) on day 21. […] On the day treatment was initiated, the mice were randomly assigned to controls (no collagen injection plus vehicle; […]. Mice were scored daily for signs of arthritis for 33 days. CIA development was inspected three times per week, and the inflammation of the four paws was graded from 0 to 4 (grade 0, paws with no swelling or focal redness; grade 1, paws with swelling of finger joints; grade 2, paws with a mild swelling of the ankle or wrist joints; grade 3, paws with severe inflammation of the entire paw; and grade 4, paws with deformity or ankylosis). Each paw was graded, and the four scores were totalled so that the possible maximum score per mouse was 16.
DBA1/J mice were sacrificed on day 33 after treatment and ankle joints were removed and fixed with 4% paraformaldehyde for more than 48 h. The joints were decalcified in EDTA buffer for 21 days and then embedded in paraffin blocks. Joint sections were stained with H&E or safranin O-fast green. Histological changes were examined under microscope using methods modified from McKew et al.[43] as follows: grade 0 = no abnormal findings; grade 1 = synoviocyte hypertrophy, slight synovial membrane fibrosis, slight-to-mild inflammatory cell infiltrates into the synovial membrane/articular capsule and/or joint space; grade 2 = grade 1 plus mild-to-moderate inflammatory cell infiltrates, pannus formation (if present) minimal with superficial cartilage erosion; grade 3 = grade 2 plus marked inflammatory cell infiltrates and fibrosis, mild-to-severe erosion of the cartilage extending into the subchondral bone; and grade 4 = loss of joint integrity through erosion or destruction with bone remodelling, massive inflammatory cell infiltrates, fibrosis, and ankylosis.

[4] = target: T3, ALK (Homo sapiens, UniProt Q9UM73); test: Eurofins Kinase Profiler panel; type: biochemical; conditions: read-out: % inhibition (1μM), DMSO control=100%, lower=stronger
T3 construct: purchased Eurofins KinaseProfiler (Eurofins Pharma Discovery Services UK, Dundee); JAK3 also ChemPartner

[5] = target: T4, BLK (Homo sapiens, UniProt P51451); test: Cys-containing kinase family panel (EurofinsCerep); type: biochemical
T4 construct: EurofinsCerep (contract assay service)

[6] = target: T5, MAPKAP-K2 (Homo sapiens, UniProt P49137); test: Eurofins Kinase Profiler panel; type: biochemical; conditions: read-out: % inhibition (1μM), DMSO control=100%, lower=stronger
T5 construct: purchased Eurofins KinaseProfiler (Eurofins Pharma Discovery Services UK, Dundee); JAK3 also ChemPartner

[7] = target: T6, BTK (Homo sapiens, UniProt Q06187); test: Cys-containing kinase family panel (EurofinsCerep); type: biochemical
T6 construct: EurofinsCerep (contract assay service)

[8] = system: IL-2-induced STAT5 phosphorylation (JAK1/JAK3); test: IL-2-induced pSTAT5 in total lymphocytes in hPBMCs, flow cytometry; type: cell-based; conditions: Homo sapiens, Lymphocyte, hPBMC total lymphocytes, trigger IL-2, readout pSTAT5
[9] = target: T7, JAK3 (Homo sapiens, UniProt P52333); test: Reversibility assay (jump dilution); type: biochemical; conditions: jump dilution experiment
T7 construct: ChemPartner (contract assay service)
T7 sequence (P52333 1-1124): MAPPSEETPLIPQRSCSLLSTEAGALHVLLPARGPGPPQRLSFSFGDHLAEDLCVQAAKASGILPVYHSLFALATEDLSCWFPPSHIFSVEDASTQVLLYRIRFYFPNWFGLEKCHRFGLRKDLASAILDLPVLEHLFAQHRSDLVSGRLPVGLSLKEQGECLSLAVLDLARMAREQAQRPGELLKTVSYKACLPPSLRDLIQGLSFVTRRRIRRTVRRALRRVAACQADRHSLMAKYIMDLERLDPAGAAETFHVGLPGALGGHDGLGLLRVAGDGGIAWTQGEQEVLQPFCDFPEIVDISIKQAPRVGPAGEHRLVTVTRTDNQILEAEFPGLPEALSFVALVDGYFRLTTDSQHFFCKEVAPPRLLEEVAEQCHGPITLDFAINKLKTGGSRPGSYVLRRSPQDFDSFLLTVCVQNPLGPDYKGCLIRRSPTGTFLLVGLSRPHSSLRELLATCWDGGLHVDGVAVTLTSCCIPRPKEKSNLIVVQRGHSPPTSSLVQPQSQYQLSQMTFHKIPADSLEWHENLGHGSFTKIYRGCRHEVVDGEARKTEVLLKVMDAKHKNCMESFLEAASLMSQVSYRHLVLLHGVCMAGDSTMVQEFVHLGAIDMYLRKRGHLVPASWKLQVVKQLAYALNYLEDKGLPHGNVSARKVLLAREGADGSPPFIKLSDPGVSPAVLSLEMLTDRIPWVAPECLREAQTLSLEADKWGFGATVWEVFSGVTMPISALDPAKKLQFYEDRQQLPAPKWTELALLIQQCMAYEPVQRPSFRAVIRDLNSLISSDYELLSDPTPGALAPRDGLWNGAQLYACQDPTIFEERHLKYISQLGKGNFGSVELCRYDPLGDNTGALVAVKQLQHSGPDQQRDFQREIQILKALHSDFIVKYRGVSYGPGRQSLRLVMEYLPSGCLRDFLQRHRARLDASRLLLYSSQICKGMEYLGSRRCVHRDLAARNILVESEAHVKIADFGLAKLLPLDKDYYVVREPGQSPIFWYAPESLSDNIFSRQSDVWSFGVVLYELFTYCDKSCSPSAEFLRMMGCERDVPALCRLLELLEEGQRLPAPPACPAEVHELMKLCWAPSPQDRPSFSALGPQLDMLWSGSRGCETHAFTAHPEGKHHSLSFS
Description: This test trial of our compound RB1 was performed on a ChemPartner reversibility assay platform (ChemPartner; Shanghai; China). Jump dilution analysis is commonly used. The compound was tested in duplicate under 2 conditions, preincubation with enzyme and no preincubation. The assay protocol guide is commercially available from ChemPartner.
Supplementary Figure S5. […] RB1 with […]
with kinase buffer that contains peptide substrate, ATP and cofactors at the final concentration for reaction, and read conversion data for 20 times for 1 h on caliper.
(1 picture or pasted object on this page, not shown here)

[10] = system: GM-CSF-induced STAT5 phosphorylation (JAK2); test: GM-CSF-induced pSTAT5 in total lymphocytes in hPBMCs, flow cytometry; type: cell-based; conditions: Homo sapiens, Lymphocyte, hPBMC total lymphocytes, trigger GM-CSF, readout pSTAT5

T5 sequence (P49137 whole entry): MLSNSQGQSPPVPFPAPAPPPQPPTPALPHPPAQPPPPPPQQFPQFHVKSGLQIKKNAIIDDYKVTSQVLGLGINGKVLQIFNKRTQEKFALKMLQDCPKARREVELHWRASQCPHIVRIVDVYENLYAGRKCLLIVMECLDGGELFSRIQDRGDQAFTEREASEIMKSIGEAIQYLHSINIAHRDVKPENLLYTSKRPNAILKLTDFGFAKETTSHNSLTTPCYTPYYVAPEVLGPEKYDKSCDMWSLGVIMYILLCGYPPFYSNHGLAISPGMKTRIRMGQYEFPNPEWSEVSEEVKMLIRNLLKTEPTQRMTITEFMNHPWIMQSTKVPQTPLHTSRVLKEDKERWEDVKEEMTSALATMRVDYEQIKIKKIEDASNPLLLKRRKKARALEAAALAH
T6 sequence (Q06187 whole entry): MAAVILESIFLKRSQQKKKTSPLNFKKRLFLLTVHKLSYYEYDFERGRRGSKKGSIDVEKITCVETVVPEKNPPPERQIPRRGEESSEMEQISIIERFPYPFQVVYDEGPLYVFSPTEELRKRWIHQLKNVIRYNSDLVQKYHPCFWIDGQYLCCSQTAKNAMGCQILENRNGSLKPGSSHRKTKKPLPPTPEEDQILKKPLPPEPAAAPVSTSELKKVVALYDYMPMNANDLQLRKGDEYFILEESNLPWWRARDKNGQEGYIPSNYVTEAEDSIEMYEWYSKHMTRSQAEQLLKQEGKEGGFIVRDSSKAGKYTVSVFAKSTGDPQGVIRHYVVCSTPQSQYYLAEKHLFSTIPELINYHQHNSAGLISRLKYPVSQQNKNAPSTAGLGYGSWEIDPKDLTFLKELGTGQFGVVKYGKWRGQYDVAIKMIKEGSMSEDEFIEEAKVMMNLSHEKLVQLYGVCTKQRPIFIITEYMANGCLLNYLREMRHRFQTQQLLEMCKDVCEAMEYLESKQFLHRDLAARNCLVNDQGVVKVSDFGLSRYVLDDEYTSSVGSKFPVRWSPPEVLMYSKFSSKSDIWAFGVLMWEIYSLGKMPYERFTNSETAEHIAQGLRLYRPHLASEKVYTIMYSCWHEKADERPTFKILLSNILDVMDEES
T3 sequence (Q9UM73 19-1620): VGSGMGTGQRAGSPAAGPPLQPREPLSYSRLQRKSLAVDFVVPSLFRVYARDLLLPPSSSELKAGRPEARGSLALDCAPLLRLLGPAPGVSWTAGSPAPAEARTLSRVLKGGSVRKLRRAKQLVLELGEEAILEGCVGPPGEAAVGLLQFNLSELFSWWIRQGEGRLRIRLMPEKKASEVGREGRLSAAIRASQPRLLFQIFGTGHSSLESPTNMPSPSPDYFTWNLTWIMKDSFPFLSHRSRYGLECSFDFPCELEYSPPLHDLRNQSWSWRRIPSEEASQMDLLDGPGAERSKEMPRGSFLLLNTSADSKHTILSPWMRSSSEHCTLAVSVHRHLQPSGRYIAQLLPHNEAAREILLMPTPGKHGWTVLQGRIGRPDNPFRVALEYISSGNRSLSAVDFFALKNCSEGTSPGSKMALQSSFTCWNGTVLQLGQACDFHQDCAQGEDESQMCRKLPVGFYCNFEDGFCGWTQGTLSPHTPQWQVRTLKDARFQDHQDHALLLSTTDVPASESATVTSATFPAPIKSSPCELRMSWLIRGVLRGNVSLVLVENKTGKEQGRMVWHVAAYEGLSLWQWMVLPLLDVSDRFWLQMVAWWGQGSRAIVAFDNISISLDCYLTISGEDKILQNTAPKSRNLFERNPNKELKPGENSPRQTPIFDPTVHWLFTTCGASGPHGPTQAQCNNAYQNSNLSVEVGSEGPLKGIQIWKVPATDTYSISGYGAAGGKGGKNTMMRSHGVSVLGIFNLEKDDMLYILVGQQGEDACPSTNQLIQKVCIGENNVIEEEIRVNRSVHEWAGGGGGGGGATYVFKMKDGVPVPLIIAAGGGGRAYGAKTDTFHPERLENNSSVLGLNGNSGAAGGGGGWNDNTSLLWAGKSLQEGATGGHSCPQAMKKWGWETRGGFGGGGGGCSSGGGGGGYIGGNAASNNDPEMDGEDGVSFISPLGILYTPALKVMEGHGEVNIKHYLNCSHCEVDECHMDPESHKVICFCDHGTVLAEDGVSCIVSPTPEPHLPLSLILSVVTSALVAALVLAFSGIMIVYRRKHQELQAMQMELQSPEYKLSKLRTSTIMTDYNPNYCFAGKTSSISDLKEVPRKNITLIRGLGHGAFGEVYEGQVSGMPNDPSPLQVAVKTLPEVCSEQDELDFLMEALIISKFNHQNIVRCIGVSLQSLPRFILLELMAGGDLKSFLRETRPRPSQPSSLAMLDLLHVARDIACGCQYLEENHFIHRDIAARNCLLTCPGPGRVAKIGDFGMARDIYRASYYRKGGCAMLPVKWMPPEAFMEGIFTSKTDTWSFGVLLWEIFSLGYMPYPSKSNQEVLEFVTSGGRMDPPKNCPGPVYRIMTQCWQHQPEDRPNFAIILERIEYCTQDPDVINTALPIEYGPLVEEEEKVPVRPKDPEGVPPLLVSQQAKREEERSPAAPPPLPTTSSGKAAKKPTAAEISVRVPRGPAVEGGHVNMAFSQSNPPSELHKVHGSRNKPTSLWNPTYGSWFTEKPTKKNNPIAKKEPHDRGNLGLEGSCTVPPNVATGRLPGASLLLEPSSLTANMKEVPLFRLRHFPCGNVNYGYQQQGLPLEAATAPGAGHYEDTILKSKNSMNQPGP
T1 sequence (P36888 27-993): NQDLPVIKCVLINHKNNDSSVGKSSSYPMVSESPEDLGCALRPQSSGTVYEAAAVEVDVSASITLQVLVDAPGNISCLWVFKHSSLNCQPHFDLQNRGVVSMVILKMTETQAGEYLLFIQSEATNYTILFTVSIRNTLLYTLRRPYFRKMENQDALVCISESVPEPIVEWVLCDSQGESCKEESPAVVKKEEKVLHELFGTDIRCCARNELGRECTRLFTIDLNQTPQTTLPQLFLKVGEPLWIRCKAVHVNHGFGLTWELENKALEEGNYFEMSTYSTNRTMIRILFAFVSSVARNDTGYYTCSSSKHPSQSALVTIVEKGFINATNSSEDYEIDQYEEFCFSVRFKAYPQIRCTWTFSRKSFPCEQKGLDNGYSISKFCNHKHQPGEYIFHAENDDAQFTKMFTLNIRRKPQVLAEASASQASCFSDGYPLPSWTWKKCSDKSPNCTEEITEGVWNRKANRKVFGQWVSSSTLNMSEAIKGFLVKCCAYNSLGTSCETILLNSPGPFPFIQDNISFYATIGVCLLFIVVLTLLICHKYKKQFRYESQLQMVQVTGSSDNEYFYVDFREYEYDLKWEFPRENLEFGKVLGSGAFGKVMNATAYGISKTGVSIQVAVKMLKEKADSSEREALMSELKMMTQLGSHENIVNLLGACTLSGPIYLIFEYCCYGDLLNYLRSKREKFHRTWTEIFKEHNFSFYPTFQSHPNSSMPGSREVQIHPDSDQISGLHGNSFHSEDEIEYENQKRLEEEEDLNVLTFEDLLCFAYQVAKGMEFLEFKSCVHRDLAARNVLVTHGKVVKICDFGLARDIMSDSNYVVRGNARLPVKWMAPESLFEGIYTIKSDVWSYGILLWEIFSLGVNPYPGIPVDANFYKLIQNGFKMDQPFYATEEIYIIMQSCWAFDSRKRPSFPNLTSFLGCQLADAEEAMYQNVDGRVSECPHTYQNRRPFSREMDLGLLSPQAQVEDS
T4 sequence (P51451 whole entry): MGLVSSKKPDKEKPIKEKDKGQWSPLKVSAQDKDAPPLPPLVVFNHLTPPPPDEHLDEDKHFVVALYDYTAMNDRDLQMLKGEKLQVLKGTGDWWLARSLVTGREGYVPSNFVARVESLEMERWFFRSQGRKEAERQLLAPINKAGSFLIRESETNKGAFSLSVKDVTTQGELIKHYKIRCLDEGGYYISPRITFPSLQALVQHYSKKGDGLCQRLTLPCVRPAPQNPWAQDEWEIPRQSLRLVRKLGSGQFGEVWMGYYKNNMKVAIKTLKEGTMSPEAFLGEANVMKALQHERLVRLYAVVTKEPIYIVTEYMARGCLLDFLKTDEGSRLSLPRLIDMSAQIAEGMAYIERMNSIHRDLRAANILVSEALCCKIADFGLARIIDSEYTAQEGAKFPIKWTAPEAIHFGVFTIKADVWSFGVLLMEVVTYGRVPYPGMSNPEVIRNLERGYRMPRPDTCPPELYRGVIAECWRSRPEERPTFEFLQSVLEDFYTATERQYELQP
T2 sequence (P34947 whole entry): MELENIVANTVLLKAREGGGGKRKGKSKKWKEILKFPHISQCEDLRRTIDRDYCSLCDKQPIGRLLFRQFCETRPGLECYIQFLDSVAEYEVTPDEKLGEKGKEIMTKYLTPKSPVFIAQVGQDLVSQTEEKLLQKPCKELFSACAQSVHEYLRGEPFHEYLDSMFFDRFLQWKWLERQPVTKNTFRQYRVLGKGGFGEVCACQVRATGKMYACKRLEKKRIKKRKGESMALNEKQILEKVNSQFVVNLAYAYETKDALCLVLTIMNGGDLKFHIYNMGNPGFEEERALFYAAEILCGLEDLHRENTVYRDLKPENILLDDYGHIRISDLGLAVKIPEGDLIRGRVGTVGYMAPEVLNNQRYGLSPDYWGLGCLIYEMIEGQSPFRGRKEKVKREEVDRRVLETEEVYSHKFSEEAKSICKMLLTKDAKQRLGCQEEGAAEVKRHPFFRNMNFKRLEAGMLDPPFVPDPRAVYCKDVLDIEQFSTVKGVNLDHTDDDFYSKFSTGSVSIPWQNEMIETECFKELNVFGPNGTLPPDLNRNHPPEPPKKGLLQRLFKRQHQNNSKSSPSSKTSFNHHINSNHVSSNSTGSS

C=CC(=O)N[C@@H]1CCCN(c2ncnc3[nH]ccc23)C1 [RB1]
activity at 1 µM [1]: 75% | activity at 1 µM [2]: 94% | H&E analysis of the major organs [3]: no significant side effects | body weight during treatment [3]: no fluctuations | group mean histological severity score ([3]; 10 mg/kg): 2.5 | group mean histological severity score ([3]; 30 mg/kg): 1.7 | group mean histological severity score ([3]; 100 mg/kg): 0.9 | arthritis (clinical) scores ([3]; p < 0.05 at 10 mg/kg, p < 0.001 at 30 and 60 mg/kg (so in the source)): lower arthritis scores than untreated CIA mice | activity at 1 µM [4]: 100% | inhibition at 1 µM [5]: 8.35% | activity at 1 µM [6]: 97% | inhibition at 1 µM [7]: -0.95% | IC50 [8]: 105 nM | active JAK3 over time after preincubation [9]: no active JAK3 was detected | IC50 [10]: > 10000 nM
